Laboratory results from patent US11793774B2, “Chiral beta-hydroxyethylamines and their use in the treatment of hyperglycemia” (ATROGI AB, priority 2017, dated 2023).

Experiments:
[1] = system: L6-myotubes; assay: Glucose uptake (3H-2-deoxy-glucose) in differentiated L6-myotubes; assay type: cell-based; conditions: agonist final concentration 1×10^−5, 3H-2-deoxy-glucose uptake, relative to isoproterenol
Experimental: L6-myoblasts were grown in Dulbecco's Modified Eagle's Medium (DMEM) containing 4.5 g/l glucose supplemented with 10% fetal bovine serum, 2 mM L-Glutamine, 50 U/ml penicillin, 50 μg/ml streptomycin and 10 mM HEPES. Cells were plated at 1×10^5 cells per ml in 24-well plates. After reaching 90% confluence the cells were grown in medium containing 2% FBS for 7 days where upon cells differentiated into myotubes. Differentiated L6-myotubes were serum-starved over night in medium containing 0.5% fatty-acid free BSA and stimulated with agonist, final concentration 1×10^−5. After 1 h 40 min cells were washed with warm, glucose free medium or PBS and another portion of agonist was added to glucose free medium. After 20 min the cells were exposed to 50 nM ^3H-2-deoxy-glucose for another 10 min before washed in ice cold glucose free medium or PBS and lysed in 0.2 M NaOH for 1 h in 60° C.

[2] = system: Intracellular cAMP levels; assay: Measurement of intracellular cAMP levels in differentiated cells (alpha screen cAMP kit); assay type: cell-based; conditions: agonist final concentration 1×10^−5, 15 min, 1 mM IBMX, relative to isoproterenol
Experimental: L6-myoblasts were grown in Dulbecco's Modified Eagle's Medium (DMEM) containing 4.5 g/l glucose supplemented with 10% fetal bovine serum, 2 mM L-Glutamine, 50 U/ml penicillin, 50 μg/ml streptomycin and 10 mM HEPES. Cells were plated at 1×10^5 cells per ml in 24-well plates. After reaching 90% confluence the cells were grown in medium containing 2% FBS for 7 days where upon cells differentiated into myotubes.
Differentiated cells were serum-starved over night and stimulated with agonist, final concentration 1×10^−5, for 15 min in stimulation buffer (HBSS supplemented with 1% BSA, 5 mM HEPES and 1 mM IBMX, pH 7.4) The medium was then aspirated and to end the reaction 100 μL of 95% EtOH was added to each well of a 24-well plate and cells were kept in −20° C. over night. The EtOH was let to evaporate and 500 μL of lysis buffer (1% BSA, 5 mM HEPES and 0.3% Tween-20, pH 7.4) was added to each well before put in −80° C. for 30 min and then kept in −20° C. Intracellular cAMP levels were detected using an alpha screen cAMP kit (6760635D from Perkin Elmer). The activity for each compound is compared to that of isoproterenol.

Structure (SMILES): CCC[C@@H](C)NC[C@H](O)c1ccc(O)cc1 [Example 2, 4-((R)-1-Hydroxy-2-(((R)-pentan-2-yl)amino)ethyl)phenol Hemisulphate]
- Biological example 1: glucose uptake activity compared to that of isoproterenol [1]: ++ (between 75 and 50%)
- Biological example 2: intracellular cAMP activity compared to that of isoproterenol [2]: + (between 50 and 25%)

Structure (SMILES): CCC[C@@H](C)NC[C@H](O)c1cccc(O)c1 [Example 4, 3-((R)-1-Hydroxy-2-(((R)-pentan-2-yl)amino)ethyl)phenol Hemisulphate]
- Biological example 1: glucose uptake activity compared to that of isoproterenol [1]: +++ (activity of more than 75% of that of isoproterenol)
- Biological example 2: intracellular cAMP activity compared to that of isoproterenol [2]: ++ (between 75 and 50%)

Structure (SMILES): CCC[C@@H](C)NC[C@H](O)c1ccc(F)cc1 [Example 5, (R)-1-(4-Fluorophenyl)-2-(((R)-pentan-2-yl)amino)ethan-1-ol]
- Biological example 1: glucose uptake activity compared to that of isoproterenol [1]: ++ (between 75 and 50%)
- Biological example 2: intracellular cAMP activity compared to that of isoproterenol [2]: − (less than 25%)

Structure (SMILES): CCC[C@@H](C)NC[C@H](O)c1cccc(F)c1 [Example 6, (R)-1-(3-fluorophenyl)-2-(((R)-pentan-2-yl)amino)ethan-1-ol]
- Biological example 1: glucose uptake activity compared to that of isoproterenol [1]: ++ (between 75 and 50%)
- Biological example 2: intracellular cAMP activity compared to that of isoproterenol [2]: − (less than 25%)
